Assays:
[1] = biological target: Cdk5/p25 (Homo sapiens, UniProt Q00535); experiment: Cdk5/p25 radiometric kinase inhibition assay; assay type: biochemical
[2] = test system: phosphorylated tau at Serine 235 (Ptau235) in primary neurons; experiment: inhibition of tau phosphorylation; assay type: cell-based; conditions: rat primary neurons, 4 h at 37 °C, Ptau235 immunoblot

Cdk5/p25, sequence (Q00535 whole entry): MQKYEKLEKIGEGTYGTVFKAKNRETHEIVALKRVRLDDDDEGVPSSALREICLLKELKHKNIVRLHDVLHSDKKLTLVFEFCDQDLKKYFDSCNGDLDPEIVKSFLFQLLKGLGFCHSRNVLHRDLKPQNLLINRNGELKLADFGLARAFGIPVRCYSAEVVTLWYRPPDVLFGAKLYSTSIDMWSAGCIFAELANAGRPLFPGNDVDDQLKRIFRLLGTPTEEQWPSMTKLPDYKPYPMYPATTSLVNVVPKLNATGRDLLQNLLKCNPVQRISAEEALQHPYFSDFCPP
Cdk5/p25, sequence (Q15078 99-307 partner limits assumed): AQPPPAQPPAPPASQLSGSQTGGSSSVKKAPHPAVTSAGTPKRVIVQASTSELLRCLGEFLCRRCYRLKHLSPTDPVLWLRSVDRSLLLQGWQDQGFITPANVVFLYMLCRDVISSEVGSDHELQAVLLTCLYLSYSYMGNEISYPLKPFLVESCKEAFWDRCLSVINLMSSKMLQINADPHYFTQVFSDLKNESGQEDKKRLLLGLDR

Compound: CNc1nc(Nc2cccnc2)sc1C(=O)c1ccccc1F [Compound 43]
- Cdk5/p25 inhibitory activity (in words) ([1]; radiometric assay): abolished inhibitory activity

Compound: Nc1nc(Nc2cccnc2)sc1C(=O)c1ccccc1F [Compound 26]
- binding ΔΔG ([1]; calculated from the listed activities for the pair 26 and 28): -2.6 kcal/mol
- inhibition of tau phosphorylation (in words) [2]: dose-dependent inhibition of tau phosphorylation

Source: paper PMC3062192 (Bioorganic & medicinal chemistry letters, 2011)
